Measured values published in ChEMBL document CHEMBL1158521, “Photoactive ligands probing the sweet taste receptor. Design and synthesis of highly potent diazirinyl D-phenylalanine derivatives” (Bioorg Med Chem Lett, 2010).
The source made the active and inactive calls. The rule behind the calls is not given here.

Experiments:
T1R2/T1R3 (Homo sapiens) [1] = target: T1, T1R2/T1R3 (Homo sapiens) (UniProt Q8TE23+Q7RTX0); assay: Activity at human T1R2/T1R3 expressed in HEK293T cells co-expressing Galpha-16-gust44 assessed as F340/F380 ratio at 1.25 mM in presence of T1R2/T1R3 antagonist lactisole; type: functional, cell-based; settings: HEK-293T
T1R2/T1R3 (Homo sapiens) [2] = target: T1, T1R2/T1R3 (Homo sapiens); assay: Activity at human T1R2/T1R3 expressed in HEK293T cells co-expressing Galpha-16-gust44 assessed as F340/F380 ratio at 1.25 mM; type: cell-based; settings: HEK-293T

| Compound | Activity (T1R2/T1R3 (Homo sapiens) [1]) | Activity (T1R2/T1R3 (Homo sapiens) [2]) |
| --- | --- | --- |
| N[C@H](Cc1ccc(C2(C(F)(F)F)N=N2)cc1)C(=O)O | inactive | Active |
| N[C@H](Cc1cccc(C2(C(F)(F)F)N=N2)c1)C(=O)O | inactive | Active |
